Literature values in patent publication US5514673A, “Pharmaceutical composition containing lipophilic drugs” (priority 1993, dated 1996).

Columns and labels:
[1] = for first pass effect: oral
[2] = physiological saline solution
[3] = in vivo
[4] = animal tests
[5] = sublingual and buccal, sex hormone compositions

Row | Compound | oral effectiveness [1] | first pass effect [1] | suitability of intranasal administration [2] | nephrotoxicity and haemolytic activity [3] | influence on drug uptake [4] | effect on the absorption [5]
1 | C[C@]12CC[C@@H]3c4ccc(O)cc4CC[C@H]3[C@@H]1CC[C@@H]2O [17β-estradiol] | very limited oral effectiveness | high first pass effect | unsuitable |  |  | 
2 | CC(=O)[C@H]1CC[C@H]2[C@@H]3CCC4=CC(=O)CC[C@]4(C)[C@H]3CC[C@]12C [Progesterone, progesterone] | very limited oral effectiveness | high first pass effect |  |  |  | 
3 | dimethyl-β-cyclodextrin |  |  |  | nephrotoxicity and haemolytic activity | adversely influence the drug uptake | virtually no effect on the absorption
